Holding throughout (experiment): NCI anticancer screen, dose series, 48 h
The test system of experiment [1] is HL-60.
In experiment [2] the test system is UO-31.
For experiment [3], the system named is UACC-257.
In experiment [4] the test system is CAKI-1.
The subject of experiment [5] is RPMI-8226.
Experiment [6] relates to 786-0.
In experiment [7] the test system is HCT-116.
In experiment [8] the test system is HCT-15.
The test system of experiment [9] is OVCAR-3.
For experiment [10], the system named is OVCAR-4.
Experiment [11] relates to NCI-H460.
Experiment [12] has as its system NCI-H226.
Experiment [13] has as its system SF-268.
The test system of experiment [14] is RXF 393.
The subject of experiment [15] is HT-29.
Experiment [16] relates to LOX IMVI.
Experiment [17] relates to COLO 205.
Experiment [18] has as its system SW-620.

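Step 1: Grow cells in 96-well plates. Step 2: Expose to compound for 48 hours at 5 concentrations. Step 3: Interpolate endpoints linearly; if unreached, use highest concentration. GI50 is the concentration that inhibits growth by half.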 Calls of active or inactive are those of the source. Rule as the data show it: active = GI50 up to about 1.1 µM and inactive = higher.

Consider `C/C(=C\CNc1ncnc2c1ncn2C1CCCCO1)COP(=O)(O)O` (centres undefined), for which the GI50 in experiment [1], in experiment [2], in experiment [3], in [4], in [5] and in experiment [6] was > 100 µM (inactive) each time. Further, the GI50 in experiment [7] was > 100 µM (inactive); in experiment [8] it was more than 100 µM; in [9], > 100 µM (inactive); in experiment [10] it was > 100 µM (inactive); in experiment [11] it was > 100 µM (inactive); in experiment [12] it was > 100 µM (inactive). Also, the GI50 in experiment [13], in experiment [14], in experiment [15], in experiment [16], in [17] and in experiment [18] was > 100 µM (inactive) in each case.
As for `N=C(N)NNC(=O)CCn1[nH]c(=O)c(Cl)c(Cl)c1=O`, the GI50 in [1], in [2], in [3], in experiment [4], in [5] and in [6] was > 100 µM (inactive) in each case. The GI50 in experiment [8] was more than 100 µM; in experiment [9], > 100 µM (inactive); in experiment [10] it was > 100 µM (inactive); in experiment [11], > 100 µM (inactive); in [12], > 100 µM (inactive); in [13], > 100 µM (inactive). Besides, the GI50 in experiment [14], in experiment [15], in experiment [16], in experiment [17] and in [18] was > 100 µM (inactive) throughout.
`C=C=C(CC)C(C(=O)OC)N(CC)CC` (centres undefined): the GI50 in experiment [1], in experiment [2], in experiment [3], in [4], in [5] and in [6] was > 100 µM (inactive) each time. Further, the GI50 in [7], in [9], in experiment [10], in experiment [11], in experiment [12] and in [13] was > 100 µM (inactive) throughout. Moreover, the GI50 in experiment [14], in experiment [15], in experiment [16], in experiment [17] and in [18] was > 100 µM (inactive) each time.
Take `O=C1[C@@H]2C(c3ccncc3)=NO[C@@H]2C(=O)N1c1ccc(Cc2ccc(N3C(=O)[C@H]4C(c5ccncc5)=NO[C@H]4C3=O)cc2)cc1`: the GI50 in experiment [1], in experiment [2], in experiment [3], in experiment [4], in [5] and in [6] was > 100 µM (inactive) each time. The GI50 in experiment [8] is more than 100 µM; in [9], > 100 µM (inactive); in [10], > 100 µM (inactive); in [11] it was > 100 µM (inactive); in [12], 73.8 µM (inactive); in [13], > 100 µM (inactive). For the same compound, the GI50 in experiment [14], in experiment [15], in experiment [16], in [17] and in experiment [18] was > 100 µM (inactive) in each case.

Source of the values: ChEMBL document CHEMBL1201862, “PubChem BioAssay data set” (2004).
